Measured values reported in patent US10371707B1, “System and methods for bilirubin analysis” (Neolight LLC, priority 2017, dated 2019).
Counter-ions that a name gives are not always drawn.

Tests used:
[1] = Cyclic voltammetry, direct electro-oxidation on screen-printed carbon electrodes; format: physicochemical; settings: for anodic peak Epa: first/characteristic anodic peak, carbon electrodes, Ag/AgCl reference, scan rate 0.1 V/s, 0.05M Tris-HCl pH 8.5
Experimental: (§1) All electrochemical experiments were performed on screen-printed carbon electrodes with an Ag/AgCl reference electrode in a 3-electrode mode of operation. Cyclic Voltammetry parameters were controlled via a computational program; scan rate: 0.1 V/s, start potential: −0.5V, switch potential: 0.9V, end potential: −0.5V.
(§2) Deionized water (resistivity 18.2MΩ cm) was used in the preparation of solutions. Bilirubin was dissolved in 0.05M sodium hydroxide to prepare 1 mM stock and gently vortexed till homogenously mixed. This stock solution was then diluted using 0.05 M Tris-HCl (pH 8.5) to the desired working concentration. […] Bromophenol blue was prepared in 0.05M Tris-HCl (pH 8.5). Conjugated bilirubin was dissolved in 0.05M Tris-HCl (pH 8.5) and mixed till homogenous. All tubes containing bilirubin were protected from light.
Regarding the detection of unbound unconjugated bilirubin, it was diluted to a physiologically relevant concentration (100 μM) and analyzed by cyclic voltammetry.

[2] = target: T1, Human serum albumin (Homo sapiens, UniProt P02768); assay: Binding to albumin and displacement of bilirubin by bromophenol blue, assessed by cyclic voltammetry; settings: for binding affinity to albumin (in words): inferred from voltammetric results; for effect of binding to albumin on electrochemical oxidation of the ligand: mixed with albumin, cyclic voltammetry; for peak current of liberated unconjugated bilirubin (peak at 0.15V): unconjugated bilirubin + albumin + bromophenol blue
T1 construct: purchased Sigma Aldrich, UK
Experimental: as §1, §2
Surfactants, caffeine, sodium benzoate and fatty acids are common solubilizing agents.
As with unconjugated bilirubin, bromophenol blue was used a competitive binding ligand for the displacement of conjugated bilirubin.

[3] = target: T2, albumin (Homo sapiens, UniProt P02768); settings: within human plasma; cited from earlier work
T2 construct: host or cells: human plasma
T2 sequence (P02768 25-609): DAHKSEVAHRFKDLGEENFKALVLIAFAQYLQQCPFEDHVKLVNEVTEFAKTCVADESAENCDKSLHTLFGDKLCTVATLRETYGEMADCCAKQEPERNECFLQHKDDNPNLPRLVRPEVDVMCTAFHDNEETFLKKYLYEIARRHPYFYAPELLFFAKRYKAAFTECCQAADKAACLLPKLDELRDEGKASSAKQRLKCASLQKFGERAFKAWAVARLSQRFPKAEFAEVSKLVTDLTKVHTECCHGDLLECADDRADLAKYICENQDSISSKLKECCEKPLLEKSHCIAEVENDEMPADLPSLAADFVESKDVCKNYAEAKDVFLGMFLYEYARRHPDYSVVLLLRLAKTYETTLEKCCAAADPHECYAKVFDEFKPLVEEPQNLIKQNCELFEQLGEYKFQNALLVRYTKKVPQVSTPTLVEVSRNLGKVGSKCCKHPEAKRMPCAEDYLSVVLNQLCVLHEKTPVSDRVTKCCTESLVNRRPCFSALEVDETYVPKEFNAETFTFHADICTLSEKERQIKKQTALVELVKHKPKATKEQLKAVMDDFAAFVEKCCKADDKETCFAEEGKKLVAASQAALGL

T1 sequence (P02768 25-609): as above

SMILES | anodic peak Epa [1] [V] | displacement of conjugated bilirubin from albumin ([2]; conjugated bilirubin, albumin, bromophenol blue at 1:1:1 ratio) | displacement of unconjugated bilirubin from albumin ([2]; equal concentration ratios of unconjugated bilirubin, albumin and bromophenol blue) | binding affinity to albumin (in words) [2] | effect of binding to albumin on electrochemical oxidation of the ligand [2] | peak current of liberated unconjugated bilirubin (peak at 0.15V) ([2]; bromophenol blue concentration increased threefold) [μA] | peak current of liberated unconjugated bilirubin (peak at 0.15V) ([2]; bromophenol blue concentration increased two-fold) [μA] | third anodic peak ([1]; cyclic voltammetry, same set-up) [V] | secondary anodic peak ([1]; cyclic voltammetry, same set-up, for unconjugated bilirubin distinct at 50 μM and higher) [V] | unconjugated bilirubin bound to albumin [3]
O=S1(=O)OC(c2cc(Br)c(O)c(Br)c2)(c2cc(Br)c(O)c(Br)c2)c2ccccc21 [bromophenol blue, 4,4′-(1,1-dioxido-3H-2,1-benzoxathiole-3,3-diyl)bis(2,6-dibromophenol)] | 0.64 | sufficiently displaced the conjugated bilirubin | no displacement of unconjugated bilirubin was observed | higher binding affinity | diminish the bromophenol blue peak at 0.64V | 0.347 | 0.645 | – | – | –
C=CC1=C(C)/C(=C/c2[nH]c(Cc3[nH]c(/C=C4\NC(=O)C(C)=C4C=C)c(C)c3CCC(=O)NCCS(=O)(=O)O)c(CCC(=O)NCCS(=O)(=O)O)c2C)NC1=O [conjugated bilirubin, Bilirubin conjugated ditaurate disodium salt] | 0.15 | – | – | weaker than that of unbound bilirubin | hinders oxidation of bilirubin | – | – | 0.44 | 0.3 | –
C=CC1=C(C)/C(=C/c2[nH]c(Cc3[nH]c(/C=C4\NC(=O)C(C)=C4C=C)c(C)c3CCC(=O)O)c(CCC(=O)O)c2C)NC1=O [unconjugated bilirubin, Bilirubin (mixed isomers)] | – | – | – | – | – | – | – | – | – | roughly 99.9%
